# Experiments:
# powdery mildew fungus = assay: Induced resistance of wheat to powdery mildew fungus infection; format: in vivo
# Procedure: 2-amino-3-methylhexanoic acid was dissolved in distilled water and diluted with distilled water into solutions of 1 nM, 10 nM, 100 nM, 1,000 nM and 10,000 nM by gradient, and blank control was additionally set. Wheat seeds were germinated, planted in a sterilized soil culture pot and cultured in a greenhouse at 23(±1)° C. with light for 12 h. When the seedlings grew to the stage of one leaf and one bud, the stems and leaves of the wheat seedlings were sprayed with the 2-amino-3-methylhexanoic acid solutions of the above concentrations. The treatment was repeated once after 24 h and conducted twice in total. After 24 h, fresh wheat powdery mildew spores were evenly scattered on the wheat leaves in three pots, with 20 plants per pot. After 10 days, the disease grade of wheat treated at each concentration was investigated. The disease degree was recorded according to the wheat powdery mildew grading standard in the Guidelines for the Field Efficacy Trials of Pesticides (I), and the disease index and relative immune effect were calculated by a method the same as that for calculating the disease index and relative immune effect of tomato spotted wilt. At the same time, the middle segment of the last but one leaf of wheat was taken and the distribution of mycelia on the wheat leaves was observed by referring to Wolf and Fric's rapid staining method of powdery mildew. Grading standard of wheat powdery mildew (per leaf): • Grade 1: The diseased spot area accounts for 5% or less of the whole leaf area. • Grade 3: The diseased spot area accounts for 6-15% of the whole leaf area. • Grade 5: The diseased spot area accounts for 16-25% of the whole leaf area. • Grade 7: The diseased spot area accounts for 26-50% of the whole leaf area. • Grade 9: The diseased spot area accounts for 50% or more of the whole leaf area.
# "Sikang 1" cotton = assay: Induced resistance of cotton to salt stress; format: in vivo; settings: 100 mM NaCl, three days
# Procedure: The experimental material was “Sikang 1” cotton, which was cultured in water in a 500 mL plastic cup, and a ½ Hoagland nutrient solution was changed every three days. When the cotton seedling grew until the second true leaf fully unfolded, the leaf surface was sprayed with 2-amino-3-methylhexanoic acid solutions. The concentrations of 0, 1, 10, 100 and 1,000 nM were set in the experiment, and 0.02% Tween 20 was added as a surfactant. The spraying was repeated once after 24 h and conducted twice in total. On the second day after the treatment, NaCl was added to the ½ Hoagland nutrient solution to a final concentration of 100 mM to conduct salt stress treatment. There were three repetitions in each treatment group. Rehydration treatment was conducted after three days of salt stress, the salt injury symptoms of cotton were observed, and the salt injury index was calculated by a formula as follows: […]
# A. ureafaciens = settings: cited from earlier work
# [1] = test system: tomato spotted wilt virus; assay: Induced resistance of tobacco to tomato spotted wilt virus infection; format: in vivo; settings: for Relative immune effect / Disease index: tobacco; for Content of virus protein: tobacco leaves, 3 days, Western blot, relative
# Procedure: Tomato spotted wilt virus was obtained from Yunnan Province, China. The initial virus source was stored in a refrigerator at −80° C. Nicotiana benthamiana leaves were inoculated with the virus by mechanical inoculation to activate the virus. Viral plasmids were extracted and transformed by competent cells of Escherichia coli. The competent cells were spread on a resistant plate and cultured. Single colonies were selected for PCR screening. Positive colonies were selected for sequencing and subsequent plasmid extraction. Plasmids with normal sequencing were added to competent cells of Agrobacterium, and the Agrobacterium was transformed by electroporation. A solution of the transformed Agrobacterium was spread on the correspondingly resistant screening plate, and cultured at 28° C. (±1) for 48 h. Single colonies of the Agrobacterium on the transformation plate were selected, placed in 5 mL of correspondingly resistant LB medium, and cultured overnight at 28° C. and 180 rpm. Bacterial cells were collected by 2 min of centrifugation at 6,000 rpm, and suspended with an Agrobacterium treatment buffer solution (10 mM MgCl2, 10 mM MES, 10 μM Acetosyringone) until the OD600 value of the suspension was 0.5, and the suspension was treated at 28° C. for 3 h in dark for use.
# 2-amino-3-methylhexanoic acid was dissolved in distilled water and then diluted with distilled water by gradient into solutions of 0 nM, 0.5 nM, 1 nM and 10 nM. Nicotiana benthamiana seeds were sowed in a small pot, and cultured at 22 (±1)° C., 16 h/8 h light for 5 weeks. Healthy tobacco plants (preferably with 8-10 leaves) were selected and treated with the 2-amino-3-methylhexanoic acid solutions of the above concentrations to conduct spray treatment on the stems and leaves. The treatment was repeated once after 24 h and conducted twice in total. After 24 h, the Agrobacterium solution with a uniform concentration was extracted using a 1 mL syringe, the injection port of the syringe was pressed directly on a small hole on the back of a tobacco leaf, and the bacterial solution was slowly pushed to soak the whole leaf. The soaked tobacco was moved to an environment of 22 (±1)° C. and cultured under 16 h/8 h light. 3 days later, microscopic observation was conducted. At the same time, samples were taken. The gray scale of protein bands was analyzed by Western blot combined with ImageJ software, and the relative protein content of the virus in the leaves was determined. The incidence of tobacco leaves was observed 15 days later, and the disease indexes were recorded according to the Grade and Investigation Method of Tobacco Diseases and Insect Pests (GB/T23222-2008) using a formula as follows: […]
# Grading standard of tomato spotted wilt virus infection (grading and investigation were conducted per plant): • Grade 0: The whole plant is disease free. • Grade 1: Heart leaves have clear veins or are slightly mottled, and the diseased plant is not obviously dwarfed. • Grade 3: One-third of leaves are mottled without deformation, or the diseased plant is dwarfed to three quarters or more of a normal plant in height. • Grade 5: One-third to one-half of leaves are mottled, or a few leaves are deformed, or the main veins become black, or the plant is dwarfed to two-thirds to three-quarters of a normal plant in height. • Grade 7: One-half to two-thirds of leaves are mottled or deformed, or a few main and lateral veins become necrotic, or the plant is dwarfed to one-half to two-thirds of a normal plant in height. • Grade 9: The leaves of the whole plant are mottled, seriously deformed or necrotic, or the diseased plant is dwarfed to […] of a normal plant in height.
# [2] = concentration greater than 1,000 nM, susceptible wheat variety
# [3] = each concentration in range 0.5-10 nM
structure (smiles),measurement,setting,value
CCCC(C)C(N)C(=O)O (stereo not shown) [2-amino-3-methylhexanoic acid],Relative immune effect,"powdery mildew fungus; 1 nM, wheat",3.5%
same,Relative immune effect,"powdery mildew fungus; 10 nM, wheat",15.56%
same,Relative immune effect,"powdery mildew fungus; 100 nM, wheat",27.63%
same,Relative immune effect,"powdery mildew fungus; 1,000 nM, wheat",55.06%
same,Relative immune effect,"powdery mildew fungus; 10,000 nM, wheat",65.37%
same,Disease index,powdery mildew fungus; [2],lower than 50
same,Relative immune effect,powdery mildew fungus; [2],more than 50%
same,Death rate,"""Sikang 1"" cotton; 1 nM",50%
same,Salt injury index,"""Sikang 1"" cotton; 1 nM",67%
same,Death rate,"""Sikang 1"" cotton; 10 nM",50%
same,Salt injury index,"""Sikang 1"" cotton; 10 nM",63%
same,Death rate,"""Sikang 1"" cotton; 100 nM",33%
same,Salt injury index,"""Sikang 1"" cotton; 100 nM",56%
same,Death rate,"""Sikang 1"" cotton; 1,000 nM",33%
same,Salt injury index,"""Sikang 1"" cotton; 1,000 nM",47%
same,Inhibitory effect,A. ureafaciens,slight inhibitory effect
same,Relative immune effect,[1]; 0.5 nM,59.06%
same,Relative immune effect,[1]; 1 nM,52.36%
same,Content of virus protein,[1]; 1 nM,0.33 ± 0.001c
same,Disease index,"[1]; 1 nM, 15 days after inoculation",44.81 ± 3.90c
same,Relative immune effect,[1]; 10 nM,22.05%
same,Content of virus protein,[1]; 10 nM,0.44 ± 0.007b
same,Disease index,"[1]; 10 nM, 15 days after inoculation",73.33 ± 2.22b
same,Disease index,[1]; [3],lower than 75
same,Relative immune effect,[1]; [3],≥ 20%

# From US20240057598A1, “USE OF 2-AMINO-3-METHYLHEXANOIC ACID AS PLANT IMMUNITY INDUCER” (NANJING AGRICULTURAL UNIVERSITY, priority 2020, published 2024)
